Measurements: ChEMBL document CHEMBL1122369, “Autoxidation of the antitumor drug 9-hydroxyellipticine and its derivatives” (1983)

tested on: L1210; assay: Growth inhibitory activity against L1210 lymphocytic leukemia cells.; format: functional; settings: Mus musculus, read-out: ID50 (the source's name)

SMILES	IC50
Cc1c2cc[n+](C)cc2c(C)c2c1[nH]c1ccc(O)cc12 [ELLIPTINIUM]	50 nM
Cc1c2ccncc2c(C)c2c1[nH]c1ccccc12 [ELLIPTECINE]	990 nM
Cc1c2c[n+](C)ccc2c(C)c2c1c1cc(O)ccc1n2C	41 nM

Further lines, results first:

IC50	SMILES
5440 nM	Cc1c2ccncc2c(C)c2c1[nH]c1c(O)cccc12
15 nM	Cc1c2ccncc2c(C)c2c1[nH]c1ccc(O)cc12
